Laboratory results reported in PubChem BioAssay (NCI).
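Compound exposure: 48 hours, 5 concentrations, 96-well plates. TGI denotes the concentration required for complete inhibition of growth.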

Test system: HOP-92 NSCLC
Assay: growth of human tumour cells (NCI), 48 h

Question: Which TGI does the source give for `O=C(O)/C(=C/c1ccccc1)c1ccccc1` here?
Answer: Its TGI is greater than 100 µM.

Question: For `CCOC(=O)C1CSCCSC1`, which TGI is on record?
Answer: The TGI was greater than 100 µM.

Question: `COc1ccc2nccc(/C=C/c3ccc(N(C)C)cc3)c2c1` was tested. Which TGI did it give?
Answer: Its TGI is greater than 10 µM.

Question: Which TGI does the source give for `CC(CN(C)C)C(C#N)(c1ccccc1)c1ccccc1` (stereo not drawn) here?
Answer: Its TGI is greater than 100 µM.

Question: Which TGI does the source give for `COC(=O)C1=C(OC(=O)/C(=C/c2ccccc2)c2ccc([N+](=O)[O-])cc2)C(C(=O)OC)[C@@]2(O)[C@@H](C(=O)OC)[C@H](C)C[C@@H]1[C@@H]2C(=O)OC` (stereo partly drawn) here?
Answer: The TGI was greater than 100 µM.

Test system: HS 578T breast
Assay: growth of human tumour cells (NCI), 48 h

Question: For `O=C(O)/C(=C/c1ccccc1)c1ccccc1`, which TGI is on record?
Answer: Its TGI is greater than 100 µM.

Question: How did the TGI turn out when `CCOC(=O)C1CSCCSC1` was run?
Answer: Its TGI is greater than 100 µM.

Question: For `COc1ccc2nccc(/C=C/c3ccc(N(C)C)cc3)c2c1`, which TGI is on record?
Answer: The TGI was greater than 10 µM.

Question: `CC(CN(C)C)C(C#N)(c1ccccc1)c1ccccc1` (stereo not drawn) was tested. Which TGI did it give?
Answer: Its TGI is greater than 100 µM.

Question: `COC(=O)C1=C(OC(=O)/C(=C/c2ccccc2)c2ccc([N+](=O)[O-])cc2)C(C(=O)OC)[C@@]2(O)[C@@H](C(=O)OC)[C@H](C)C[C@@H]1[C@@H]2C(=O)OC` (stereo partly drawn) was tested. Which TGI did it give?
Answer: Its TGI is greater than 100 µM.

Test system: HT29 colon
Assay: growth of human tumour cells (NCI), 48 h

Question: For `O=C(O)/C(=C/c1ccccc1)c1ccccc1`, which TGI is on record?
Answer: Its TGI is greater than 100 µM.

Question: How did the TGI turn out when `CCOC(=O)C1CSCCSC1` was run?
Answer: Its TGI is greater than 100 µM.

Question: Which TGI does the source give for `COc1ccc2nccc(/C=C/c3ccc(N(C)C)cc3)c2c1` here?
Answer: Its TGI is greater than 10 µM.

Question: For `CC(CN(C)C)C(C#N)(c1ccccc1)c1ccccc1` (stereo not drawn), which TGI is on record?
Answer: Its TGI is greater than 100 µM.

Question: `COC(=O)C1=C(OC(=O)/C(=C/c2ccccc2)c2ccc([N+](=O)[O-])cc2)C(C(=O)OC)[C@@]2(O)[C@@H](C(=O)OC)[C@H](C)C[C@@H]1[C@@H]2C(=O)OC` (stereo partly drawn) was tested. Which TGI did it give?
Answer: The TGI was greater than 100 µM.

Test system: IGROV1 ovarian
Assay: growth of human tumour cells (NCI), 48 h

Question: For `O=C(O)/C(=C/c1ccccc1)c1ccccc1`, which TGI is on record?
Answer: Its TGI is greater than 100 µM.

Question: How did the TGI turn out when `COc1ccc2nccc(/C=C/c3ccc(N(C)C)cc3)c2c1` was run?
Answer: The TGI was greater than 10 µM.

Question: Which TGI does the source give for `CC(CN(C)C)C(C#N)(c1ccccc1)c1ccccc1` (stereo not drawn) here?
Answer: The TGI was greater than 100 µM.

Question: Which TGI does the source give for `COC(=O)C1=C(OC(=O)/C(=C/c2ccccc2)c2ccc([N+](=O)[O-])cc2)C(C(=O)OC)[C@@]2(O)[C@@H](C(=O)OC)[C@H](C)C[C@@H]1[C@@H]2C(=O)OC` (stereo partly drawn) here?
Answer: Its TGI is greater than 100 µM.

Test system: K-562 leukemia
Assay: growth of human tumour cells (NCI), 48 h

Question: Which TGI does the source give for `O=C(O)/C(=C/c1ccccc1)c1ccccc1` here?
Answer: Its TGI is greater than 100 µM.

Question: How did the TGI turn out when `CCOC(=O)C1CSCCSC1` was run?
Answer: The TGI was greater than 100 µM.

Question: With `COc1ccc2nccc(/C=C/c3ccc(N(C)C)cc3)c2c1` as the molecule, how does the TGI read?
Answer: Its TGI is greater than 10 µM.

Question: With `CC(CN(C)C)C(C#N)(c1ccccc1)c1ccccc1` (stereo not drawn) as the molecule, how does the TGI read?
Answer: The TGI was greater than 100 µM.

Question: For `COC(=O)C1=C(OC(=O)/C(=C/c2ccccc2)c2ccc([N+](=O)[O-])cc2)C(C(=O)OC)[C@@]2(O)[C@@H](C(=O)OC)[C@H](C)C[C@@H]1[C@@H]2C(=O)OC` (stereo partly drawn), which TGI is on record?
Answer: Its TGI is greater than 100 µM.

Test system: KM12 colon
Assay: growth of human tumour cells (NCI), 48 h

Question: For `O=C(O)/C(=C/c1ccccc1)c1ccccc1`, which TGI is on record?
Answer: Its TGI is greater than 100 µM.

Question: How did the TGI turn out when `CCOC(=O)C1CSCCSC1` was run?
Answer: Its TGI is greater than 100 µM.

Question: `COc1ccc2nccc(/C=C/c3ccc(N(C)C)cc3)c2c1` was tested. Which TGI did it give?
Answer: The TGI was greater than 10 µM.

Question: With `CC(CN(C)C)C(C#N)(c1ccccc1)c1ccccc1` (stereo not drawn) as the molecule, how does the TGI read?
Answer: The TGI was greater than 100 µM.

Question: For `COC(=O)C1=C(OC(=O)/C(=C/c2ccccc2)c2ccc([N+](=O)[O-])cc2)C(C(=O)OC)[C@@]2(O)[C@@H](C(=O)OC)[C@H](C)C[C@@H]1[C@@H]2C(=O)OC` (stereo partly drawn), which TGI is on record?
Answer: Its TGI is greater than 100 µM.

Test system: LOX IMVI melanoma
Assay: growth of human tumour cells (NCI), 48 h

Question: How did the TGI turn out when `O=C(O)/C(=C/c1ccccc1)c1ccccc1` was run?
Answer: Its TGI is greater than 100 µM.

Question: With `CCOC(=O)C1CSCCSC1` as the molecule, how does the TGI read?
Answer: Its TGI is greater than 100 µM.

Question: `COc1ccc2nccc(/C=C/c3ccc(N(C)C)cc3)c2c1` was tested. Which TGI did it give?
Answer: Its TGI is greater than 10 µM.

Question: For `CC(CN(C)C)C(C#N)(c1ccccc1)c1ccccc1` (stereo not drawn), which TGI is on record?
Answer: The TGI was greater than 100 µM.

Question: How did the TGI turn out when `COC(=O)C1=C(OC(=O)/C(=C/c2ccccc2)c2ccc([N+](=O)[O-])cc2)C(C(=O)OC)[C@@]2(O)[C@@H](C(=O)OC)[C@H](C)C[C@@H]1[C@@H]2C(=O)OC` (stereo partly drawn) was run?
Answer: The TGI was greater than 100 µM.

Test system: M14 melanoma
Assay: growth of human tumour cells (NCI), 48 h

Question: Which TGI does the source give for `O=C(O)/C(=C/c1ccccc1)c1ccccc1` here?
Answer: The TGI was greater than 100 µM.

Question: With `COc1ccc2nccc(/C=C/c3ccc(N(C)C)cc3)c2c1` as the molecule, how does the TGI read?
Answer: The TGI was greater than 10 µM.

Question: For `CC(CN(C)C)C(C#N)(c1ccccc1)c1ccccc1` (stereo not drawn), which TGI is on record?
Answer: The TGI was greater than 100 µM.

Question: How did the TGI turn out when `COC(=O)C1=C(OC(=O)/C(=C/c2ccccc2)c2ccc([N+](=O)[O-])cc2)C(C(=O)OC)[C@@]2(O)[C@@H](C(=O)OC)[C@H](C)C[C@@H]1[C@@H]2C(=O)OC` (stereo partly drawn) was run?
Answer: The TGI was greater than 100 µM.

Test system: MALME-3M melanoma
Assay: growth of human tumour cells (NCI), 48 h

Question: How did the TGI turn out when `O=C(O)/C(=C/c1ccccc1)c1ccccc1` was run?
Answer: Its TGI is greater than 100 µM.

Question: With `COc1ccc2nccc(/C=C/c3ccc(N(C)C)cc3)c2c1` as the molecule, how does the TGI read?
Answer: Its TGI is greater than 10 µM.

Question: With `CC(CN(C)C)C(C#N)(c1ccccc1)c1ccccc1` (stereo not drawn) as the molecule, how does the TGI read?
Answer: The TGI was greater than 100 µM.

Question: For `COC(=O)C1=C(OC(=O)/C(=C/c2ccccc2)c2ccc([N+](=O)[O-])cc2)C(C(=O)OC)[C@@]2(O)[C@@H](C(=O)OC)[C@H](C)C[C@@H]1[C@@H]2C(=O)OC` (stereo partly drawn), which TGI is on record?
Answer: Its TGI is greater than 100 µM.

Test system: MCF7 breast
Assay: growth of human tumour cells (NCI), 48 h

Question: With `O=C(O)/C(=C/c1ccccc1)c1ccccc1` as the molecule, how does the TGI read?
Answer: The TGI was greater than 100 µM.

Question: How did the TGI turn out when `CCOC(=O)C1CSCCSC1` was run?
Answer: Its TGI is greater than 100 µM.

Question: Which TGI does the source give for `COc1ccc2nccc(/C=C/c3ccc(N(C)C)cc3)c2c1` here?
Answer: The TGI was greater than 10 µM.

Question: With `CC(CN(C)C)C(C#N)(c1ccccc1)c1ccccc1` (stereo not drawn) as the molecule, how does the TGI read?
Answer: Its TGI is greater than 100 µM.

Question: With `COC(=O)C1=C(OC(=O)/C(=C/c2ccccc2)c2ccc([N+](=O)[O-])cc2)C(C(=O)OC)[C@@]2(O)[C@@H](C(=O)OC)[C@H](C)C[C@@H]1[C@@H]2C(=O)OC` (stereo partly drawn) as the molecule, how does the TGI read?
Answer: Its TGI is greater than 100 µM.

Test system: MDA-MB-231 breast
Assay: growth of human tumour cells (NCI), 48 h

Question: `O=C(O)/C(=C/c1ccccc1)c1ccccc1` was tested. Which TGI did it give?
Answer: Its TGI is greater than 100 µM.

Question: How did the TGI turn out when `CCOC(=O)C1CSCCSC1` was run?
Answer: Its TGI is greater than 100 µM.

Question: `COc1ccc2nccc(/C=C/c3ccc(N(C)C)cc3)c2c1` was tested. Which TGI did it give?
Answer: The TGI was greater than 10 µM.

Question: Which TGI does the source give for `CC(CN(C)C)C(C#N)(c1ccccc1)c1ccccc1` (stereo not drawn) here?
Answer: Its TGI is greater than 100 µM.

Question: How did the TGI turn out when `COC(=O)C1=C(OC(=O)/C(=C/c2ccccc2)c2ccc([N+](=O)[O-])cc2)C(C(=O)OC)[C@@]2(O)[C@@H](C(=O)OC)[C@H](C)C[C@@H]1[C@@H]2C(=O)OC` (stereo partly drawn) was run?
Answer: The TGI was greater than 100 µM.

Test system: MDA-MB-435
Assay: growth of human tumour cells (NCI), 48 h

Question: For `O=C(O)/C(=C/c1ccccc1)c1ccccc1`, which TGI is on record?
Answer: The TGI was greater than 100 µM.

Question: Which TGI does the source give for `CCOC(=O)C1CSCCSC1` here?
Answer: The TGI was greater than 100 µM.

Question: Which TGI does the source give for `COc1ccc2nccc(/C=C/c3ccc(N(C)C)cc3)c2c1` here?
Answer: The TGI was 7.49 µM.

Question: How did the TGI turn out when `CC(CN(C)C)C(C#N)(c1ccccc1)c1ccccc1` (stereo not drawn) was run?
Answer: Its TGI is greater than 100 µM.

Question: Which TGI does the source give for `COC(=O)C1=C(OC(=O)/C(=C/c2ccccc2)c2ccc([N+](=O)[O-])cc2)C(C(=O)OC)[C@@]2(O)[C@@H](C(=O)OC)[C@H](C)C[C@@H]1[C@@H]2C(=O)OC` (stereo partly drawn) here?
Answer: The TGI was greater than 100 µM.

Test system: MDA-N
Assay: growth of human tumour cells (NCI), 48 h

Question: How did the TGI turn out when `O=C(O)/C(=C/c1ccccc1)c1ccccc1` was run?
Answer: Its TGI is greater than 100 µM.

Question: Which TGI does the source give for `CCOC(=O)C1CSCCSC1` here?
Answer: Its TGI is greater than 100 µM.

Question: With `COc1ccc2nccc(/C=C/c3ccc(N(C)C)cc3)c2c1` as the molecule, how does the TGI read?
Answer: The TGI was greater than 10 µM.

Question: How did the TGI turn out when `CC(CN(C)C)C(C#N)(c1ccccc1)c1ccccc1` (stereo not drawn) was run?
Answer: The TGI was greater than 100 µM.

Question: For `COC(=O)C1=C(OC(=O)/C(=C/c2ccccc2)c2ccc([N+](=O)[O-])cc2)C(C(=O)OC)[C@@]2(O)[C@@H](C(=O)OC)[C@H](C)C[C@@H]1[C@@H]2C(=O)OC` (stereo partly drawn), which TGI is on record?
Answer: Its TGI is greater than 100 µM.

Test system: MOLT-4 leukemia
Assay: growth of human tumour cells (NCI), 48 h

Question: Which TGI does the source give for `O=C(O)/C(=C/c1ccccc1)c1ccccc1` here?
Answer: The TGI was greater than 100 µM.

Question: With `CCOC(=O)C1CSCCSC1` as the molecule, how does the TGI read?
Answer: The TGI was greater than 100 µM.

Question: Which TGI does the source give for `COc1ccc2nccc(/C=C/c3ccc(N(C)C)cc3)c2c1` here?
Answer: Its TGI is greater than 10 µM.

Question: Which TGI does the source give for `CC(CN(C)C)C(C#N)(c1ccccc1)c1ccccc1` (stereo not drawn) here?
Answer: Its TGI is greater than 100 µM.

Question: With `COC(=O)C1=C(OC(=O)/C(=C/c2ccccc2)c2ccc([N+](=O)[O-])cc2)C(C(=O)OC)[C@@]2(O)[C@@H](C(=O)OC)[C@H](C)C[C@@H]1[C@@H]2C(=O)OC` (stereo partly drawn) as the molecule, how does the TGI read?
Answer: Its TGI is greater than 100 µM.

Test system: NCI-H226 lung
Assay: growth of human tumour cells (NCI), 48 h

Question: With `CCOC(=O)C1CSCCSC1` as the molecule, how does the TGI read?
Answer: Its TGI is greater than 100 µM.
